Measured values as given in patent publication EP4745137A1 (Gluetacs Therapeutics (Shanghai) Co., Ltd., priority 2023, dated 2025).

How the values were obtained:
Assay type in all cases: cell-based
Details in all cases: 24 hours of compound treatment, 50 nM and 500 nM tested (concentration behind the class not stated)
WEE1 = target: T1, WEE1 (Homo sapiens, UniProt P30291+Q96SW2); assay: Western-blot assay of substrate protein degradation in hPBMCs, WEE1
T1 construct: endogenous in cells; host or cells: hPBMCs (Milecell Biotechnologies)

IKZF2 = target: T2, IKZF2 (Homo sapiens, UniProt Q96SW2+Q9UKS7); assay: Western-blot assay of substrate protein degradation in hPBMCs, IKZF2
T2 construct: endogenous in cells; host or cells: hPBMCs (Milecell Biotechnologies)

CK1α = target: T3, CK1α (Homo sapiens, UniProt P48729+Q96SW2); assay: Western-blot assay of substrate protein degradation in hPBMCs, CK1α
T3 construct: endogenous in cells; host or cells: hPBMCs (Milecell Biotechnologies)

IKZF3 = target: T4, IKZF3 (Homo sapiens, UniProt Q96SW2+Q9UKT9); assay: Western-blot assay of substrate protein degradation in hPBMCs, IKZF3
T4 construct: endogenous in cells; host or cells: hPBMCs (Milecell Biotechnologies)

IKZF1 = target: T5, IKZF1 (Homo sapiens, UniProt Q13422+Q96SW2); assay: Western-blot assay of substrate protein degradation in hPBMCs, IKZF1
T5 construct: endogenous in cells; host or cells: hPBMCs (Milecell Biotechnologies)

GSPT1 = target: T6, GSPT1 (Homo sapiens, UniProt P15170+Q96SW2); assay: Western-blot assay of substrate protein degradation in hPBMCs, GSPT1
T6 construct: endogenous in cells; host or cells: hPBMCs (Milecell Biotechnologies)
T6 sequence (P15170 whole entry): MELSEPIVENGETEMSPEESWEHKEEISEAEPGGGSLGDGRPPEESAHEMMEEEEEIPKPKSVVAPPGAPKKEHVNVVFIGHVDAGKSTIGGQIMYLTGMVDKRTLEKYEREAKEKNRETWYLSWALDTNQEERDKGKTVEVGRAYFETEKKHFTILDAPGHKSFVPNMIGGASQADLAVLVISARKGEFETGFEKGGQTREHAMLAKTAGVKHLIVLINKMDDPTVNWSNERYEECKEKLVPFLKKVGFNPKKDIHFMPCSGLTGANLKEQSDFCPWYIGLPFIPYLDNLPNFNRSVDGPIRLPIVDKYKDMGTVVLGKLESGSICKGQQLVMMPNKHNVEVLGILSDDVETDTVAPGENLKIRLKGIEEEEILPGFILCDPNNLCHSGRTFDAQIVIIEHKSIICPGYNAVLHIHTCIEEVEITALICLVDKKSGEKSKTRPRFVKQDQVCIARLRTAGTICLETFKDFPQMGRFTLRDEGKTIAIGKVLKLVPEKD
T6 sequence (Q96SW2 whole entry): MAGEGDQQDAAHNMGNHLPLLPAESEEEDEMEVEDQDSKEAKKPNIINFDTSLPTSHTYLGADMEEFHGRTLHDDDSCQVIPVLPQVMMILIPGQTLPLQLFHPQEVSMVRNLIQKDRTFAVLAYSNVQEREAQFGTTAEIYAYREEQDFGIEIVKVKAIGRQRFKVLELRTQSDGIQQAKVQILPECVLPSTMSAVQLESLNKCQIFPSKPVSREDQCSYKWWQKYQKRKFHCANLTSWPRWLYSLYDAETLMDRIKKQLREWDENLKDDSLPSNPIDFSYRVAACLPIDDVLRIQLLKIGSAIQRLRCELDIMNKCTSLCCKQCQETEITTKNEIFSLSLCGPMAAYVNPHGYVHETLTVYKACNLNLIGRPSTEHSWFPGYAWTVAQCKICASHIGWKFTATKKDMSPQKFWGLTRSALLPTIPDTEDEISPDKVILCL
T6 sequence (Q16531 whole entry partner): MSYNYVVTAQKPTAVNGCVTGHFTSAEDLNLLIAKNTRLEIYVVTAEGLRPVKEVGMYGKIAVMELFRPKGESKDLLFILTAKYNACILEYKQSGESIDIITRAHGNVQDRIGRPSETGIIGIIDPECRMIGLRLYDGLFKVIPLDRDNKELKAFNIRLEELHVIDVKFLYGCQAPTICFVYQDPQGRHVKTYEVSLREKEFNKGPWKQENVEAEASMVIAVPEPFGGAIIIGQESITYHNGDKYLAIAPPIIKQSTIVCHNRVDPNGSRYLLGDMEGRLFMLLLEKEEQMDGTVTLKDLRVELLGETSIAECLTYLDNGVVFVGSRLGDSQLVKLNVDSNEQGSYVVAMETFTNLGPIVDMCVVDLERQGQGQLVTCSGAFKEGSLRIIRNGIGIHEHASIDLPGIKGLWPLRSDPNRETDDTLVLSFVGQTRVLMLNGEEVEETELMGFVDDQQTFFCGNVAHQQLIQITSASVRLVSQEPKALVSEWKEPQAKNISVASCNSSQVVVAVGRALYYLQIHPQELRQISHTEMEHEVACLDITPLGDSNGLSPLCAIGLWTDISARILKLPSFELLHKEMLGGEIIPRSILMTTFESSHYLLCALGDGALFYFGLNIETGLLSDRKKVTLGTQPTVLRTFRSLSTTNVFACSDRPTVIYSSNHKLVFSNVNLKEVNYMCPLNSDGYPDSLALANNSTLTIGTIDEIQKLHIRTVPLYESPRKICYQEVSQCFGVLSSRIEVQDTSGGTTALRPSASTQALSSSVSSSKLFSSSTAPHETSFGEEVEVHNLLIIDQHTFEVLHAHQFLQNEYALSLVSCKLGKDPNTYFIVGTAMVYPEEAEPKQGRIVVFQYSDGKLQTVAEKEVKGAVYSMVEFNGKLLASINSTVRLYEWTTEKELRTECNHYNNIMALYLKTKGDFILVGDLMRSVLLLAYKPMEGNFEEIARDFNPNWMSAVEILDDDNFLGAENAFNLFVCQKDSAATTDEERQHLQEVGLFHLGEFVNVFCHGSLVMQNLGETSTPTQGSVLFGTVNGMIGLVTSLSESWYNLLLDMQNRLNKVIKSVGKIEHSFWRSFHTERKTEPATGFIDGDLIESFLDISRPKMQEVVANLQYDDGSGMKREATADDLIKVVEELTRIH

T5 sequence (Q13422 whole entry): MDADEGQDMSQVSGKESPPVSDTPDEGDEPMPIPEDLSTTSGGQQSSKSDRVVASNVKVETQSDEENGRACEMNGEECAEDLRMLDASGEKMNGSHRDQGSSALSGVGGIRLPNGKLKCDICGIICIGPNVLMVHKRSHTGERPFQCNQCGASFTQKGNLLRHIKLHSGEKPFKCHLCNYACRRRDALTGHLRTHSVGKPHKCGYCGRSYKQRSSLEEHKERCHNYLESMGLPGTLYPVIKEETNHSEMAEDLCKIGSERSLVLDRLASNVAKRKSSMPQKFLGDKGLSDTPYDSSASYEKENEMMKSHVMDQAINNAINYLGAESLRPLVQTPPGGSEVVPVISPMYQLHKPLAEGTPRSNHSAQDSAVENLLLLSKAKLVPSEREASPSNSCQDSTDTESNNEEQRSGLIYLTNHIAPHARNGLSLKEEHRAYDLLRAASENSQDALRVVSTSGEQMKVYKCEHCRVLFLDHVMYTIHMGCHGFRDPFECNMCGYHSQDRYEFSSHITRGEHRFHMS
T5 sequence (Q96SW2 whole entry): as the sequence (Q96SW2 whole entry) above
T5 sequence (Q16531 whole entry partner): as the sequence (Q16531 whole entry partner) above
T2 sequence (Q9UKS7 whole entry): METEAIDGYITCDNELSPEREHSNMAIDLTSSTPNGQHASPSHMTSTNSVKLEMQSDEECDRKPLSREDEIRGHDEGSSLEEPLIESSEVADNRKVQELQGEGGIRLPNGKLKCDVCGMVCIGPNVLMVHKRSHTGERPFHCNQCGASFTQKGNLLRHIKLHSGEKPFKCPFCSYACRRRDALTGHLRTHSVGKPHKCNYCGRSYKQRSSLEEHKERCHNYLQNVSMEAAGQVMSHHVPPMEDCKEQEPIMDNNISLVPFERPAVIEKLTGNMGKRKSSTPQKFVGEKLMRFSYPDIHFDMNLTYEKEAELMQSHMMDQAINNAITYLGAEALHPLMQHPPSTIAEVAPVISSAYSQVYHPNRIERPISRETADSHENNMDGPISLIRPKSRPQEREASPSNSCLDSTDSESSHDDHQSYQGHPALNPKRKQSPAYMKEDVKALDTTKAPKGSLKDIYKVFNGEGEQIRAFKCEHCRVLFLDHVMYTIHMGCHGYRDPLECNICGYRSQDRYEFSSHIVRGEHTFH
T2 sequence (Q96SW2 whole entry): as the sequence (Q96SW2 whole entry) above
T2 sequence (Q16531 whole entry partner): as the sequence (Q16531 whole entry partner) above
T3 sequence (P48729 whole entry): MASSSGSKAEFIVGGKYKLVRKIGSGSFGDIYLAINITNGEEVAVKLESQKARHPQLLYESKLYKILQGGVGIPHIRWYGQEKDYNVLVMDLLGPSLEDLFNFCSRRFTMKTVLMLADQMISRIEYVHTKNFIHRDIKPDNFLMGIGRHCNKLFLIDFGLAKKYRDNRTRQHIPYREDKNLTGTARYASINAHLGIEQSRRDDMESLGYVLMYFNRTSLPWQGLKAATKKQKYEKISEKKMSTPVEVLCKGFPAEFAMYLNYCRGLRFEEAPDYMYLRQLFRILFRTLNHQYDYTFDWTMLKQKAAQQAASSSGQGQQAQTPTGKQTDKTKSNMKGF
T3 sequence (Q96SW2 whole entry): as the sequence (Q96SW2 whole entry) above
T3 sequence (Q16531 whole entry partner): as the sequence (Q16531 whole entry partner) above
T1 sequence (P30291 whole entry): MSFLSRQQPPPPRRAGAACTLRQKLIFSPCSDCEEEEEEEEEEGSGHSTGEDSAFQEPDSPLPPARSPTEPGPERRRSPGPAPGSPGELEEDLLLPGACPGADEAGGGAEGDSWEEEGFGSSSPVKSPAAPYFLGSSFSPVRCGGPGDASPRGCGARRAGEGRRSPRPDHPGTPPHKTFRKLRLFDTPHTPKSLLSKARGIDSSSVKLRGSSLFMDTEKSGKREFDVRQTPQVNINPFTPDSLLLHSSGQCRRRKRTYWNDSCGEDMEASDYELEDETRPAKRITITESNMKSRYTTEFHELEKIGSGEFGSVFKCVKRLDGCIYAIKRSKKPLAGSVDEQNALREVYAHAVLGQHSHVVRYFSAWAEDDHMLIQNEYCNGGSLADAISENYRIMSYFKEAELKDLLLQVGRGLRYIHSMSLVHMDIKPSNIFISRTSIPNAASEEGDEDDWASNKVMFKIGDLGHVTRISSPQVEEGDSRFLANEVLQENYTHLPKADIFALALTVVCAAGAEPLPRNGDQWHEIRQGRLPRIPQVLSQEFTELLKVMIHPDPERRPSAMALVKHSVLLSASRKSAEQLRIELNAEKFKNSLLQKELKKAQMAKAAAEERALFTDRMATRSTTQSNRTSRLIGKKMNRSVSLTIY
T1 sequence (Q96SW2 whole entry): as the sequence (Q96SW2 whole entry) above
T1 sequence (Q16531 whole entry partner): as the sequence (Q16531 whole entry partner) above

O=C1CCC(N2C(=O)c3ccc(CN4CCN(c5ccnc(Cl)c5)CC4)cc3C2=O)C(=O)N1 (stereo not drawn) [GT-06619, 5-((4-(2-chloropyridin-4-yl)piperazin-1-yl)methyl)-2-(2,6-dioxopiperidin-3-yl)isoindoline-1,3-dione] was tested, and the “Weel substrate protein remaining %” value (WEE1) was “B (80%< substrate protein remaining %≤ 100%)”, the “IKZF2 substrate protein remaining %” value (IKZF2) was “B (80%< substrate protein remaining %≤ 100%)” and the “CK1a substrate protein remaining %” value (CK1α) was “B (80%< substrate protein remaining %≤ 100%)”. For the same compound, the “IKZF3 substrate protein remaining %” value (IKZF3) was “A (0% ≤ substrate protein remaining % ≤ 80%)”, the “IKZF 1 substrate protein remaining %” value (IKZF1) was “B (80%< substrate protein remaining %≤ 100%)” and the “GSPT1 substrate protein remaining %” value (GSPT1) was “A (0% ≤ substrate protein remaining % ≤ 80%)”.

In the case of O=C1CCC(N2C(=O)c3ccc(CN4CCN(c5nccc(F)c5F)CC4)cc3C2=O)C(=O)N1 (stereo not drawn) [GT-06555, 5-((4-(3,4-difluoropyridin-2-yl)piperazin-1-yl)methyl)-2-(2,6-dioxopiperidin-3-yl)isoindoline-1,3-dione], the “Weel substrate protein remaining %” value (WEE1) is reported as “B (80%< substrate protein remaining %≤ 100%)”, the “IKZF2 substrate protein remaining %” value (IKZF2) is reported as “A (0% ≤ substrate protein remaining % ≤ 80%)” and the “CK1a substrate protein remaining %” value (CK1α) is reported as “B (80%< substrate protein remaining %≤ 100%)”. The “IKZF3 substrate protein remaining %” value (IKZF3) was “B (80%< substrate protein remaining %≤ 100%)”, the “IKZF 1 substrate protein remaining %” value (IKZF1) was “B (80%< substrate protein remaining %≤ 100%)” and the “GSPT1 substrate protein remaining %” value (GSPT1) was “A (0% ≤ substrate protein remaining % ≤ 80%)”.

O=C1CCC(N2C(=O)c3ccc(CN4CCC(c5ccon5)CC4)cc3C2=O)C(=O)N1 (stereo not drawn) [GT-06628, 2-(2,6-dioxopiperidin-3-yl)-5-((4-(isoxazol-3-yl)piperidin-1-yl)methyl)isoindoline-1,3-dione] was tested, and the “Weel substrate protein remaining %” value (WEE1) was “B (80%< substrate protein remaining %≤ 100%)”, the “IKZF2 substrate protein remaining %” value (IKZF2) was “B (80%< substrate protein remaining %≤ 100%)” and the “CK1a substrate protein remaining %” value (CK1α) was “B (80%< substrate protein remaining %≤ 100%)”. For the same compound, the “IKZF3 substrate protein remaining %” value (IKZF3) was “B (80%< substrate protein remaining %≤ 100%)”, the “IKZF 1 substrate protein remaining %” value (IKZF1) was “B (80%< substrate protein remaining %≤ 100%)” and the “GSPT1 substrate protein remaining %” value (GSPT1) was “A (0% ≤ substrate protein remaining % ≤ 80%)”.

For O=C1CCC(N2C(=O)c3ccc(CN4CCN(c5ccc(F)cc5)CC4)cc3C2=O)C(=O)N1 (stereo not drawn) [GT-06292, 2-(2,6-dioxopiperidin-3-yl)-5-((4-(4-fluorophenyl)piperazin-1-yl)methyl)isoindoline-1,3-dione], the “Weel substrate protein remaining %” value (WEE1) was “B (80%< substrate protein remaining %≤ 100%)”, the “IKZF2 substrate protein remaining %” value (IKZF2) was “B (80%< substrate protein remaining %≤ 100%)” and the “CK1a substrate protein remaining %” value (CK1α) was “B (80%< substrate protein remaining %≤ 100%)”. The “IKZF3 substrate protein remaining %” value (IKZF3) was “B (80%< substrate protein remaining %≤ 100%)”, the “IKZF 1 substrate protein remaining %” value (IKZF1) was “B (80%< substrate protein remaining %≤ 100%)” and the “GSPT1 substrate protein remaining %” value (GSPT1) was “A (0% ≤ substrate protein remaining % ≤ 80%)”.

In the case of O=C1CCC(N2C(=O)c3ccc(CN4CCN(c5cccc(Br)c5)CC4)cc3C2=O)C(=O)N1 (stereo not drawn) [GT-06289, 5-((4-(3-bromophenyl)piperazin-1-yl)methyl)-2-(2,6-dioxopiperidin-3-yl)isoindoline-1,3-dione], the “Weel substrate protein remaining %” value (WEE1) is reported as “B (80%< substrate protein remaining %≤ 100%)”, the “IKZF2 substrate protein remaining %” value (IKZF2) is reported as “B (80%< substrate protein remaining %≤ 100%)” and the “CK1a substrate protein remaining %” value (CK1α) is reported as “B (80%< substrate protein remaining %≤ 100%)”. The “IKZF3 substrate protein remaining %” value (IKZF3) was “B (80%< substrate protein remaining %≤ 100%)”, the “IKZF 1 substrate protein remaining %” value (IKZF1) was “B (80%< substrate protein remaining %≤ 100%)” and the “GSPT1 substrate protein remaining %” value (GSPT1) was “A (0% ≤ substrate protein remaining % ≤ 80%)”.

Cc1cccc(N2CCN(Cc3ccc4c(c3)C(=O)N(C3CCC(=O)NC3=O)C4=O)CC2)c1 (stereo not drawn) [GT-06276, 2-(2,6-dioxopiperidin-3-yl)-5-((4-(m-tolyl)piperazin-1-yl)methyl)isoindoline-1,3-dione] was tested, and the “Weel substrate protein remaining %” value (WEE1) was “B (80%< substrate protein remaining %≤ 100%)”, the “IKZF2 substrate protein remaining %” value (IKZF2) was “A (0% ≤ substrate protein remaining % ≤ 80%)” and the “CK1a substrate protein remaining %” value (CK1α) was “B (80%< substrate protein remaining %≤ 100%)”. The “IKZF3 substrate protein remaining %” value (IKZF3) was “B (80%< substrate protein remaining %≤ 100%)”, the “IKZF 1 substrate protein remaining %” value (IKZF1) was “A (0% ≤ substrate protein remaining % ≤ 80%)” and the “GSPT1 substrate protein remaining %” value (GSPT1) was “A (0% ≤ substrate protein remaining % ≤ 80%)”.

For O=C1CCC(N2C(=O)c3ccc(CN4CCN(c5c(F)cncc5Cl)CC4)cc3C2=O)C(=O)N1 (stereo not drawn) [GT-06600, 5-((4-(3-chloro-5-fluoropyridin-4-yl)piperazin-1-yl)methyl)-2-(2,6-dioxopiperidin-3-yl)isoindoline-1,3-dione], the “Weel substrate protein remaining %” value (WEE1) was “B (80%< substrate protein remaining %≤ 100%)”, the “IKZF2 substrate protein remaining %” value (IKZF2) was “B (80%< substrate protein remaining %≤ 100%)” and the “CK1a substrate protein remaining %” value (CK1α) was “B (80%< substrate protein remaining %≤ 100%)”. The “IKZF3 substrate protein remaining %” value (IKZF3) was “B (80%< substrate protein remaining %≤ 100%)”, the “IKZF 1 substrate protein remaining %” value (IKZF1) was “B (80%< substrate protein remaining %≤ 100%)” and the “GSPT1 substrate protein remaining %” value (GSPT1) was “A (0% ≤ substrate protein remaining % ≤ 80%)”.

For Cc1ccc(C2CCN(Cc3ccc4c(c3)C(=O)N(C3CCC(=O)NC3=O)C4=O)CC2)s1 (stereo not drawn) [GT-06262, 2-(2,6-dioxopiperidin-3-yl)-5-((4-(5-methylthiophen-2-yl)piperidin-1-yl)methyl)isoindoline-1,3-dione], the “Weel substrate protein remaining %” value (WEE1) was “B (80%< substrate protein remaining %≤ 100%)”, the “IKZF2 substrate protein remaining %” value (IKZF2) was “A (0% ≤ substrate protein remaining % ≤ 80%)” and the “CK1a substrate protein remaining %” value (CK1α) was “A (0% ≤ substrate protein remaining % ≤ 80%)”. For the same compound, the “IKZF3 substrate protein remaining %” value (IKZF3) was “B (80%< substrate protein remaining %≤ 100%)”, the “IKZF 1 substrate protein remaining %” value (IKZF1) was “B (80%< substrate protein remaining %≤ 100%)” and the “GSPT1 substrate protein remaining %” value (GSPT1) was “A (0% ≤ substrate protein remaining % ≤ 80%)”.

O=C1CCC(N2C(=O)c3ccc(CN4CCC(c5ccnc(Cl)c5Cl)CC4)cc3C2=O)C(=O)N1 (stereo not drawn) [GT-06615, 5-((4-(2,3-dichloropyridin-4-yl)piperidin-1-yl)methyl)-2-(2,6-dioxopiperidin-3-yl)isoindoline-1,3-dione] was tested, and the “Weel substrate protein remaining %” value (WEE1) was “A (0% ≤ substrate protein remaining % ≤ 80%)”, the “IKZF2 substrate protein remaining %” value (IKZF2) was “B (80%< substrate protein remaining %≤ 100%)” and the “CK1a substrate protein remaining %” value (CK1α) was “A (0% ≤ substrate protein remaining % ≤ 80%)”. The “IKZF3 substrate protein remaining %” value (IKZF3) was “A (0% ≤ substrate protein remaining % ≤ 80%)”, the “IKZF 1 substrate protein remaining %” value (IKZF1) was “B (80%< substrate protein remaining %≤ 100%)” and the “GSPT1 substrate protein remaining %” value (GSPT1) was “A (0% ≤ substrate protein remaining % ≤ 80%)”.
